Data: patent US12577247B2 (BUGWORKS RESEARCH, INC., priority 2021, dated 2026)

Assays:
A2A receptor [1] = target: T1, A2A receptor (Homo sapiens, UniProt P29274); assay: A2aR antagonism IC50, cAMP TR-FRET (Lance Ultra) in HEK-293 cells, NECA as agonist; format: cell-based; conditions: A2AR IC50 (nM) (@5 nM NECA), HEK-293 cells expressing A2A receptor; agonist NECA 5 nM (EC90); inhibition of cAMP;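 further: compounds tested from 10 µM down to 0.08 nM in buffer with Rolipram at room temperature, TR-FRET cAMP signal read 1 h after adding Eu-cAMP tracer and ULight anti-cAMP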
T1 construct: host or cells: HEK-293
Description: Adenosine A2A receptors and Adenosine A2B receptors induce the production of cAMP when activated/stimulated by an agonist like adenosine or 5′-(N-Ethylcarboxamido) adenosine (NECA). A Time-Resolved Fluorescence Energy Transfer (TR-FRET) assay was used to show the inhibition of this cAMP production in HEK cells upon treatment with compounds of the Formula I of the present disclosure.
HEK-293 cells expressing A2A receptor (#ES-011-C) or A2B receptor (#ES 013-C) were obtained from PerkinElmer. Cells were maintained in DMEM medium supplemented with 10% FBS and 200 μg/mL of G418 at 37° C. and 5% CO2. The cells were cultured in antibiotic free medium for a period of 16-20 hours prior to the assay. All subsequent steps of the assay are performed at room temperature (22-24° C.). The cells were harvested at about 80% confluency by gentle flushing with PBS, recovered by centrifugation and resuspended in stimulation buffer at the concentration of 5.0×10^6 cells/mL.
The assays were conducted in a stimulation buffer containing 1×DMEM, 5 mM HEPES, 0.1% BSA stabilizer and 20-30 μM Rolipram. Serial dilutions of compounds were made in stimulation buffer to achieve a final concentration of high micromolar (10 μM to 0.08 nM) in the reaction volume of 10 μL. The total reaction volume was 10 μL (5 μL of cells, 2.5 μL of antagonist and 2.5 μL of agonist). The stimulation was ended, and the reaction completed by adding 5 μL of 4× Eu-cAMP tracer working solution and 5 μL of 4× ULight-anti-cAMP working solution. The TR-FRET signal was measured after 1-hour incubation using a Tecan M1000 reader.

A2A receptor [2] = target: T1, A2A receptor; assay: A2aR antagonism IC50, cAMP TR-FRET in HEK-293 cells, high concentration of adenosine (30 μM); format: cell-based; conditions: HEK-293 cells expressing A2A receptor, agonist adenosine 30 μM, 2% HSA, inhibition of cAMP;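 further: compounds added 10 min before adenosine, then 30 min stimulation at room temperature in buffer with 100 µM rolipram and 30 µM EHNA, signal read 1 h after detection reagents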
Protocol: (§1) A Time-Resolved Fluorescence Energy Transfer (TR-FRET) assay was used to show the inhibition of this cAMP production in HEK cells upon treatment with compounds of the Formula I of the present disclosure.
(§2) HEK-293 cells expressing A2A receptor (#ES-011-C) or A2B receptor (#ES 013-C) were obtained from PerkinElmer. Cells were maintained in DMEM medium supplemented with 10% FBS and 200 μg/mL of G418 at 37° C. and 5% CO2. The cells were cultured in antibiotic free medium for a period of 16-20 hours prior to the assay. All subsequent steps of the assay are performed at room temperature (22-24° C.). […] About 1500 cells per well were pre-incubated for 10 minutes with the compounds of the present invention before adding the agonist Adenosine at a high concentration (30 μM) for a total stimulation time of 30 minutes. […] The assays were conducted in a stimulation buffer containing 1×DMEM, 5 mM HEPES, 2% Human serum albumin (HSA), 100 μM Rolipram and 30 μM erythro-9-(2-hydroxy-3-nonyl) adenine (EHNA). Serial dilutions of compounds were made in stimulation buffer to achieve a final concentration of high micromolar in a reaction volume of 10 μL. The total reaction volume was 10 μL (5 μL of cells, 2.5 μL of antagonist and 2.5 μL of agonist). […] The stimulation was ended, and the reaction completed by adding 5 μL of 4× Eu-cAMP tracer working solution and 5 μL of 4× ULight-anti-cAMP working solution. The TR FRET signal was measured after 1-hour incubation using a Tecan M1000 or a PerkinElmer Victor Nivo plate reader.

A2B receptor [3] = target: T2, A2B receptor (Homo sapiens, UniProt P29275); assay: A2bR antagonism IC50, cAMP TR-FRET (Lance Ultra) in HEK-293 cells, NECA as agonist; format: cell-based; set-up: host or cells: HEK-293; conditions: HEK-293 cells expressing A2B receptor; agonist NECA 30 nM (EC90); inhibition of cAMP
T2 sequence (P29275 1-332): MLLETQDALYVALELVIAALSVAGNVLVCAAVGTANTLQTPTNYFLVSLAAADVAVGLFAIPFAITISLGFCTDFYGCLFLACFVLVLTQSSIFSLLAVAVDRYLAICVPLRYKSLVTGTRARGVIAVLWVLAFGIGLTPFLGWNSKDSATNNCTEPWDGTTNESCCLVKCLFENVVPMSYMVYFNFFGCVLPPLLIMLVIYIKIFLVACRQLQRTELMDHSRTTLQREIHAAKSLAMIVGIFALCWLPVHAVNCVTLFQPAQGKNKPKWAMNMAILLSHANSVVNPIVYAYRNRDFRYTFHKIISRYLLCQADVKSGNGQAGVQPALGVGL

A2B receptor [4] = target: T2, A2B receptor; assay: A2bR antagonism IC50, cAMP TR-FRET in HEK-293 cells, high concentration of adenosine (30 μM); conditions: A2BR IC50 (nM) (@30 μM Adenosine), HEK-293 cells expressing A2B receptor; agonist adenosine 30 μM; 2% HSA; inhibition of cAMP;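 further: compounds preincubated 10 min with cells, then adenosine stimulation 30 min at room temperature in buffer with Rolipram 100 µM and EHNA 30 µM, TR-FRET read after 1 h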
Protocol: as §1, §2

[5] = read-out: A2AR IC50 (nM) (@30 μM Adenosine)

T1 sequence (P29274 whole entry): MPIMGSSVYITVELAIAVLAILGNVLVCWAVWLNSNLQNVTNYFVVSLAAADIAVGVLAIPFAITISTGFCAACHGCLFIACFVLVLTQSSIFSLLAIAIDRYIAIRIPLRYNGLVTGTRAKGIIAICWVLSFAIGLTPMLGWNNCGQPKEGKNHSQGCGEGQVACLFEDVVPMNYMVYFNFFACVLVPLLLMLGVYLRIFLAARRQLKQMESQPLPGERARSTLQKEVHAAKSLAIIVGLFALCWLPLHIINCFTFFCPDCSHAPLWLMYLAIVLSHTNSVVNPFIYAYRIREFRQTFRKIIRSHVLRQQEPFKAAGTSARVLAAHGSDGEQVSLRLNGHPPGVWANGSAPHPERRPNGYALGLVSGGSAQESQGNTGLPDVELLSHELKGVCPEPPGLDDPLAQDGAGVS

Compound `CCc1c(C)nn2c(N)c(C#N)c(NCCc3ccn(C4CCC4CO)n3)nc12` (racemic) [Example 77, (+−)-7-amino-3-ethyl-5-((2-(1-(2-(hydroxymethyl)cyclobutyl)-1H-pyrazol-3-yl)ethyl)amino)-2-methylpyrazolo[1,5-a]pyrimidine-6-carbonitrile] has an IC50 (A2A receptor [1]) of 0.1 nM, an IC50 (A2A receptor [2]; [5]) of 81 nM and an IC50 (A2B receptor [3]) of 2 nM. For the same compound, the IC50 (A2B receptor [4]) was 700 nM.
`CCc1c(C)nn2c(N)c(C#N)c(NCCc3cccc(C)n3)nc12` [Example 17, 7-Amino-3-ethyl-2-methyl-5-((2-(6-methylpyridin-2-yl)ethyl)amino) pyrazolo[1,5-a]pyrimidine-6-carbonitrile] was tested, and the IC50 (A2A receptor [1]) was 0.15 nM, the IC50 (A2A receptor [2]; [5]) was 260 nM and the IC50 (A2B receptor [3]) was 0.87 nM. For the same compound, the IC50 (A2B receptor [4]) was 2380 nM.
With `CCn1ccc(CCNc2nc3c(C)c(C)nn3c(N)c2C#N)n1` [Example 29, 7-amino-5-{[2-(1-ethyl-1H-pyrazol-3-yl)ethyl]amino}-2,3-dimethylpyrazolo[1,5-a]pyrimidine-6-carbonitrile] the IC50 (A2A receptor [1]) was 1 nM and the IC50 (A2B receptor [3]) was 18 nM.
Work on `Cc1nn2c(N)c(C#N)c(NCCc3ccn(C(C)(C)CO)n3)nc2c1C` [Example 31, 7-amino-5-({2-[1-(1-hydroxy-2-methylpropan-2-yl)-1H-pyrazol-3-yl]ethyl}amino)-2,3-dimethylpyrazolo[1,5-a]pyrimidine-6-carbonitrile] yielded an IC50 (A2A receptor [1]) of 0.73 nM and an IC50 (A2B receptor [3]) of 51 nM.
`CCc1c(C)nn2c(N)c(C#N)c(NCCc3ccn(C(C)(C)CO)n3)nc12` [Example 32, 7-amino-3-ethyl-5-((2-(1-(1-hydroxy-2-methylpropan-2-yl)-1H-pyrazol-3-yl)ethyl)amino)-2-methylpyrazolo[1,5-a]pyrimidine-6-carbonitrile] showed an IC50 (A2A receptor [1]) of 0.5 nM, an IC50 (A2A receptor [2]; [5]) of 452 nM and an IC50 (A2B receptor [3]) of 7.3 nM. It also gave an IC50 (A2B receptor [4]) of 2130 nM.
In the case of `Cc1nn2c(N)c(C#N)c(NCCc3cccc(CO)n3)nc2c1Cl` [Example 33, 7-amino-3-chloro-5-((2-(6-(hydroxymethyl)pyridin-2-yl)ethyl)amino)-2-methylpyrazolo[1,5-a]pyrimidine-6-carbonitrile], the IC50 (A2A receptor [1]) is reported as 0.38 nM, the IC50 (A2A receptor [2]; [5]) is reported as 206 nM and the IC50 (A2B receptor [3]) is reported as 0.97 nM. It also gave an IC50 (A2B receptor [4]) of 1420 nM.
Compound `Cc1nn2c(N)c(C#N)c(NCCc3cccc(C4(CO)CC4)n3)nc2c1Cl` [Example 34, 7-amino-3-chloro-5-((2-(6-(1-(hydroxymethyl)cyclopropyl)pyridin-2-yl)ethyl)amino)-2-methylpyrazolo[1,5-a]pyrimidine-6-carbonitrile] has an IC50 (A2A receptor [1]) of 0.4 nM, an IC50 (A2A receptor [2]; [5]) of 160 nM and an IC50 (A2B receptor [3]) of 6 nM.
`Cc1nn2c(N)c(C#N)c(NCCc3ccn(CCO)n3)nc2c1Cl` [Example 35] gave an IC50 (A2A receptor [1]) of 0.92 nM and an IC50 (A2B receptor [3]) of 16 nM.
With `Cc1nn2c(N)c(C#N)c(NCCc3ccn(C(C)(C)CO)n3)nc2c1Cl` [Example 36, 7-amino-3-chloro-5-((2-(1-(1-hydroxy-2-methylpropan-2-yl)-1H-pyrazol-3-yl)ethyl)amino)-2-methylpyrazolo[1,5-a]pyrimidine-6-carbonitrile] the IC50 (A2A receptor [1]) was 0.8 nM, the IC50 (A2A receptor [2]; [5]) was 250 nM and the IC50 (A2B receptor [3]) was 22 nM.
For `Cc1nn2c(N)c(C#N)c(NCCc3ccn(C4(CO)CC4)n3)nc2c1Cl` [Example 37, 7-amino-3-chloro-5-((2-(1-(1-(hydroxymethyl)cyclopropyl)-1H-pyrazol-3-yl)ethyl)amino)-2-methylpyrazolo[1,5-a]pyrimidine-6-carbonitrile], the IC50 (A2A receptor [1]) was 0.12 nM, the IC50 (A2A receptor [2]; [5]) was 78 nM and the IC50 (A2B receptor [3]) was 7 nM. For the same compound, the IC50 (A2B receptor [4]) was 1770 nM.
Compound `Cc1nn2c(N)c(C#N)c(NCCc3cccc(C4CC4CO)n3)nc2c1Cl` (centres unmarked) [Example 38, 7-amino-3-chloro-5-((2-(6-(2-(hydroxymethyl)cyclopropyl)pyridin-2-yl)ethyl)amino)-2-methylpyrazolo[1,5-a]pyrimidine-6-carbonitrile] has an IC50 (A2A receptor [1]) of 0.1 nM, an IC50 (A2A receptor [2]; [5]) of 178 nM and an IC50 (A2B receptor [3]) of 4.4 nM.
`CCc1cccc(CCNc2nc3c(C)c(C)nn3c(N)c2C#N)n1` [Example 40, 7-amino-5-((2-(6-ethylpyridin-2-yl)ethyl)amino)-2,3-dimethyl pyrazolo [1,5-a] pyrimidine-6-carbonitrile] was tested, and the IC50 (A2A receptor [1]) was under 0.1 nM, the IC50 (A2A receptor [2]; [5]) was 260 nM and the IC50 (A2B receptor [3]) was 3.6 nM. The IC50 (A2B receptor [4]) was 2380 nM.
In the case of `Cc1ccc(F)c(CCNc2nc3c(C)c(C)nn3c(N)c2C#N)n1` [Example 41, 7-amino-5-((2-(3-fluoro-6-methylpyridin-2-yl)ethyl)amino)-2,3-dimethylpyrazolo[1,5-a]pyrimidine-6-carbonitrile], the IC50 (A2A receptor [1]) is reported as 0.88 nM and the IC50 (A2B receptor [3]) is reported as 73 nM.
With `CCc1nn2c(N)c(C#N)c(NCCc3cccc(C)n3)nc2c1C` [Example 42, 7-amino-2-ethyl-3-methyl-5-((2-(6-methylpyridin-2-yl)ethyl)amino) pyrazolo[1,5-a]pyrimidine-6-carbonitrile] the IC50 (A2A receptor [1]) was 0.88 nM and the IC50 (A2B receptor [3]) was 76 nM.
`CCc1nn2c(N)c(C#N)c(NCCc3cccc(C(C)(C)O)n3)nc2c1C` [Example 43, 7-amino-2-ethyl-5-((2-(6-(2-hydroxypropan-2-yl)pyridin-2-yl)ethyl)amino)-3-methylpyrazolo[1,5-a]pyrimidine-6-carbonitrile] was tested, and the IC50 (A2A receptor [1]) was 2.3 nM and the IC50 (A2B receptor [3]) was 123 nM.
`Cc1nn2c(N)c(C#N)c(NCCc3cccc(CO)n3)nc2c1C` [Example 44, 7-amino-5-((2-(6-(hydroxymethyl)pyridin-2-yl)ethyl)amino)-2,3-dimethylpyrazolo[1,5-a]pyrimidine-6-carbonitrile] gave an IC50 (A2A receptor [1]) of 1.3 nM and an IC50 (A2B receptor [3]) of 2.3 nM.
`CCc1c(C)nn2c(N)c(C#N)c(NCCc3cccc(CO)n3)nc12` [Example 45, 7-amino-3-ethyl-5-((2-(6-(hydroxymethyl)pyridin-2-yl)ethyl)amino)-2-methylpyrazolo[1,5-a] pyrimidine-6-carbonitrile] showed an IC50 (A2A receptor [1]) of 0.58 nM, an IC50 (A2A receptor [2]; [5]) of 935 nM and an IC50 (A2B receptor [3]) of 2.9 nM. The IC50 (A2B receptor [4]) was 650 nM.
With `CCc1c(C(F)F)nn2c(N)c(C#N)c(NCCc3ccn(C(C)(C)CO)n3)nc12` [Example 48, 7-amino-2-(difluoromethyl)-3-ethyl-5-((2-(1-(1-hydroxy-2-methylpropan-2-yl)-1H-pyrazol-3-yl)ethyl)amino) pyrazolo[1,5-a]pyrimidine-6-carbonitrile] the IC50 (A2A receptor [1]) was 2.2 nM, the IC50 (A2A receptor [2]; [5]) was 7660 nM and the IC50 (A2B receptor [3]) was 51 nM.
In the case of `CCc1c(C)nn2c(N)c(C#N)c(NCCc3cccc(C(C)(C)CO)n3)nc12` [Example 52, 7-amino-3-ethyl-5-((2-(6-(1-hydroxy-2-methylpropan-2-yl)pyridin-2-yl)ethyl)amino)-2-methylpyrazolo[1,5-a] pyrimidine-6-carbonitrile], the IC50 (A2A receptor [1]) is reported as 0.54 nM and the IC50 (A2B receptor [3]) is reported as 29.3 nM.
`Cc1nn2c(N)c(C#N)c(NCCc3cccc(C(C)(C)CO)n3)nc2c1C` [Example 53, 7-amino-5-((2-(6-(1-hydroxy-2-methylpropan-2-yl)pyridine-2-yl)ethyl)amino)-2,3-dimethylpyrazolo[1,5-a]pyrimidine-6-carbonitrile] was tested, and the IC50 (A2A receptor [1]) was 0.3 nM and the IC50 (A2B receptor [3]) was 27 nM.
`CCc1c(C)nn2c(N)c(C#N)c(NCCc3ccn(CCO)n3)nc12` [Example 54, 7-amino-3-ethyl-5-((2-(1-(2-hydroxyethyl)-1H-pyrazol-3-yl)ethyl)amino)-2-methylpyrazolo[1,5-a]pyrimidine-6-carbonitrile] gave an IC50 (A2A receptor [1]) of 0.74 nM and an IC50 (A2B receptor [3]) of 5 nM.
`CCc1c(C(F)F)nn2c(N)c(C#N)c(NCCc3cccc(CO)n3)nc12` [Example 56, 7-amino-2-(difluoromethyl)-3-ethyl-5-((2-(6-(hydroxymethyl)pyridine-2-yl)ethyl)amino) pyrazolo[1,5-a] pyrimidine-6-carbonitrile] was tested, and the IC50 (A2A receptor [1]) was 3.3 nM and the IC50 (A2B receptor [3]) was 11 nM.
`Cc1nn2c(N)c(C#N)c(NCc3ccn(C(C)(C)CO)n3)nc2c1C` [Example 57, 7-amino-5-(((1-(1-hydroxy-2-methylpropan-2-yl)-1H-pyrazol-3-yl)methyl)amino)-2,3-dimethylpyrazolo[1,5-a]pyrimidine-6-carbonitrile] gave an IC50 (A2A receptor [1]) of 13 nM and an IC50 (A2B receptor [3]) of 100 nM.
Work on `Cc1nn2c(N)c(C#N)c(NCCc3nc(C4(CO)CC4)cs3)nc2c1Cl` [Example 61, 7-amino-3-chloro-5-((2-(4-(1-(hydroxymethyl)cyclopropyl)thiazol-2-yl)ethyl)amino)-2-methylpyrazolo[1,5-a] pyrimidine-6-carbonitrile] yielded an IC50 (A2A receptor [1]) of under 1 nM, an IC50 (A2A receptor [2]; A2AR IC50 (nM) (@30 μM Adenosine)) of 574 nM and an IC50 (A2B receptor [3]) of 24 nM.
In the case of `CCc1c(C)nn2c(N)c(C#N)c(NCCc3nn(C(C)(C)CO)cc3F)nc12` [Example 62], the IC50 (A2A receptor [1]) is reported as 5 nM and the IC50 (A2B receptor [3]) is reported as 42 nM.
`Cc1nn2c(N)c(C#N)c(NCCc3cccc(C(C)(C)CO)n3)nc2c1Cl` [Example 65, 7-amino-3-chloro-5-((2-(6-(1-hydroxy-2-methylpropan-2-yl)pyridin-2-yl)ethyl)amino)-2-methylpyrazolo[1,5-a]pyrimidine-6-carbonitrile] gave an IC50 (A2A receptor [1]) of under 1 nM, an IC50 (A2A receptor [2]; [5]) of 227 nM and an IC50 (A2B receptor [3]) of 27 nM.
`CCc1c(C)nn2c(N)c(C#N)c(NCCc3nc(C4(CO)CC4)cs3)nc12` [Example 66] showed an IC50 (A2A receptor [1]) of 5 nM and an IC50 (A2B receptor [3]) of 21 nM.
